The structures appear in SMILES notation. Numbering of substitutions follows the chain as printed. Activity calls are given as the source filed them. No cut-off for these calls is given here.

A short description of data set [1]: Inhibition of almond beta glucosidase. On the set-up: species or system Prunus dulcis.
Data set [2] deals with Beta-galactosidase (Escherichia coli K-12, UniProt P00722). Briefly: Inhibition of Escherichia coli beta-galactosidase.
Data set [3] concerns the target Alpha-galactosidase (Coffea arabica, UniProt Q42656). Briefly: Inhibition of green coffee bean alpha-galactosidase.
The nature of data set [4]: Cytotoxicity against wild type human CCC-ESF1 cells at 100 uM after 24 hrs by MTT assay. The class given is cell-based. The note with it: ccc-esf1, 24 h.
In data set [5] the target is T1, Lysosomal acid glucosylceramidase (Homo sapiens, UniProt P04062).
T1 sequence (P04062 whole entry): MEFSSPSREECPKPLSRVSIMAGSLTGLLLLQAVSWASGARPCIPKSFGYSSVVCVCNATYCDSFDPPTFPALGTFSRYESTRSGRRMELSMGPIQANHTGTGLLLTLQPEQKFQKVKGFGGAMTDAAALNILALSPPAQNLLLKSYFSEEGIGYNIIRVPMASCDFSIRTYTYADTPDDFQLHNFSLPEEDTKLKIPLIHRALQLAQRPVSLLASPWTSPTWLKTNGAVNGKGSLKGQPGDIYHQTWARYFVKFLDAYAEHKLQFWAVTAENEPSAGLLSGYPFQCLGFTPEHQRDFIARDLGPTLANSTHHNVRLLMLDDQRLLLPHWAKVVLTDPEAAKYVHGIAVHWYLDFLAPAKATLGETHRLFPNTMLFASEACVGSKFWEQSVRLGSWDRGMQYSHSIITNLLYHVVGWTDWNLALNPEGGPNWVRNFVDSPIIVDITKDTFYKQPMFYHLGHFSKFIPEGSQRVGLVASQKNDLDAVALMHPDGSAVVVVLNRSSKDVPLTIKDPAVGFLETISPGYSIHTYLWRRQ
Briefly: Inhibition of human recombinant imiglucerase using 4-MU-beta-D-Glu as substrate at pH 5.2 after 30 mins by fluorometric analysis.

Data set [6] deals with T1, Lysosomal acid glucosylceramidase. The experiment in a line: Inhibition of human recombinant imiglucerase using 4-MU-beta-D-Glu as substrate at pH 7.0 after 30 mins by fluorometric analysis.
For data set [7] the target is unchanged. The experiment in a line: Competitive inhibition of human recombinant imiglucerase using 4-MU-beta-D-Glu as substrate at pH 5.2 after 30 mins by fluorometry based Lineweaver-Burk plot analysis.
Data set [8] concerns T2, Lysosomal acid glucosylceramidase (Homo sapiens), P04062 [N409S].
T2 sequence (whole entry): T1 sequence (P04062 whole entry) with N409S
The experiment in a line: Pharmacological chaperone activity at beta-glucocerebrosidase N370S mutant in Gaucher disease patient-derived lymphoblasts with GCase N370S mutant assessed as increase in enzyme activity at 3.125 to 100 uM after 3 days by fluorimetric analysis relative to control.

Data set [9] shares this test system. Briefly: Pharmacological chaperone activity at beta-glucocerebrosidase N370S mutant in Gaucher disease patient-derived lymphoblasts with GCase N370S mutant assessed as increase in enzyme activity at 10 uM after 3 days by fluorimetric analysis relative to control.

Sequence of Beta-galactosidase (P00722 whole entry): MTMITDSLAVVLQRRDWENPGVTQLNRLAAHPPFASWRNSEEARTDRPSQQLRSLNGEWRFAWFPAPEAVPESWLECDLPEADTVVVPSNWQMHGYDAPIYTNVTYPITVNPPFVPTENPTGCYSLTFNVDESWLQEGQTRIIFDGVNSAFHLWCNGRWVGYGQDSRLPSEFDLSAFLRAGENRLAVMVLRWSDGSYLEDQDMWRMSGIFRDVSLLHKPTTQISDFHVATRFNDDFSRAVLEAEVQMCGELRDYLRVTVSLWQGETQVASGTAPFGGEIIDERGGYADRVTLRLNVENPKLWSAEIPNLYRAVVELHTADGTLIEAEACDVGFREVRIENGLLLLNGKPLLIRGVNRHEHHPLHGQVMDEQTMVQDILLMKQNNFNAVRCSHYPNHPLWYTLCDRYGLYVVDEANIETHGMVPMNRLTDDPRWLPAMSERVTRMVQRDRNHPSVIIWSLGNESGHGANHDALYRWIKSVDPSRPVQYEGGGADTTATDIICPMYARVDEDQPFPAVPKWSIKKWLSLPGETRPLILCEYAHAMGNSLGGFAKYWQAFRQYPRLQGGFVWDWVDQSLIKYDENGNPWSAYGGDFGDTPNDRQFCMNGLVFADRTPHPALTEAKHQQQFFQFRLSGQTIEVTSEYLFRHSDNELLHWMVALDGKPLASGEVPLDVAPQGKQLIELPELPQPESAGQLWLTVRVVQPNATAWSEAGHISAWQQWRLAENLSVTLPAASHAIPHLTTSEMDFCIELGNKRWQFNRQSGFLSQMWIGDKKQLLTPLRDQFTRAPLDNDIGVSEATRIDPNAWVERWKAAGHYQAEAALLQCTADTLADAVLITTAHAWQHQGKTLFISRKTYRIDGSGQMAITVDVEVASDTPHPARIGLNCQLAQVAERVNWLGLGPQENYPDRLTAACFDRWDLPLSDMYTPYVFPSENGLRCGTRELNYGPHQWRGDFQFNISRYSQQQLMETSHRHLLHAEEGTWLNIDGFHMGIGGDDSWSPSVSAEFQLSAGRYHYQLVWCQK
Sequence of Alpha-galactosidase (Q42656 whole entry): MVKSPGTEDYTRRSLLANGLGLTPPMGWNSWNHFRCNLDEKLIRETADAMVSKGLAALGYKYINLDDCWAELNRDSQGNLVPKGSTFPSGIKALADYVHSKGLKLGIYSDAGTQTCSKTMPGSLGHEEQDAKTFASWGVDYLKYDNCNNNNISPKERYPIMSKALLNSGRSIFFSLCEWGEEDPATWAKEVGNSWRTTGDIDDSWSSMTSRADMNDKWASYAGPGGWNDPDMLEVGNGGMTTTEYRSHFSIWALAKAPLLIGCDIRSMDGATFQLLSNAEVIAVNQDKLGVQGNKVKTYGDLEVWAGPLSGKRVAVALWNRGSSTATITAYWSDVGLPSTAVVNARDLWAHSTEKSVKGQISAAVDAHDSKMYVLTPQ

Take `CCCCCCCCCN1C[C@H](O)[C@@H](O)[C@H](O)[C@H]1CO`: the half-maximal inhibitory concentration (IC50) in data set [1], in [2] and in data set [3] was greater than 100 µM each time. Moreover, the Activity result in data set [4] was “Non-toxic”.
`CCCCCCCCCCCCNC(=O)O/N=C1\N[C@H](CO)[C@@H](O)[C@H](O)[C@H]1O`: the 50% inhibitory concentration (IC50) was greater than 100 µM in [1]; greater than 100 µM in [2]; greater than 100 µM in [3]; 0.7 µM in data set [5]; 5.74 µM in data set [6]. For the same molecule, the inhibitory constant (Ki) in [7] turned out to be 0.14 µM. Further, in [8], the fold change (FC) was found to be 1.93. Besides, in [4], the Activity entry is on record as “Non-toxic”.
In the case of `CSc1ccc(NC(=O)O/N=C2\N[C@H](CO)[C@@H](O)[C@H](O)[C@H]2O)cc1`, the half-inhibitory concentration (IC50) in data set [1] is 8.38 µM; in data set [2] it was greater than 100 µM; in data set [3], greater than 100 µM; in data set [5], 9.15 µM; in data set [6], 17.2 µM. The Ki in [7] turned out to be 8.12 µM. Moreover, in data set [8], the fold change (FC) came to 1.19. The Activity entry in [4] was “Non-toxic”.
Regarding `O=C(Nc1cccs1)O/N=C1\N[C@H](CO)[C@@H](O)[C@H](O)[C@H]1O`, the 50% inhibitory concentration (IC50) in [1] is 2.68 µM; in data set [2], greater than 100 µM; in [3], greater than 100 µM; in data set [5], 0.84 µM; in [6], 13.2 µM. Moreover, the Ki in data set [7] turned out to be 0.64 µM. For the same molecule, in [8], the fold change (FC) was found to be 1.36. Further, in [4], the Activity entry is “Non-toxic”.
With `O=C(NC12CC3CC(CC(C3)C1)C2)O/N=C1\N[C@H](CO)[C@@H](O)[C@H](O)[C@H]1O`, the concentration for half-maximal inhibition (IC50) was 14.4 µM in data set [1]; greater than 100 µM in data set [2]; greater than 100 µM in [3]; 1.85 µM in data set [5]; 8.37 µM in data set [6]. Moreover, the inhibition constant Ki in data set [7] is 1.52 µM. In addition, the fold change (FC) in [8] is 1.35. In addition, the Activity result in data set [4] is “Non-toxic”.
In the case of `OC[C@H]1CNC[C@@H](O)[C@@H]1O` [AFEGOSTAT], the IC50 in [1], in data set [2] and in [3] was greater than 100 µM each time. In addition, in data set [8], the fold change (FC) was 1.38. Moreover, in [4], the Activity entry was “Non-toxic”.
For `OC[C@H]1N/C(=N/O)[C@H](O)[C@@H](O)[C@@H]1O`, the IC50 in data set [1] was 80.3 µM; in data set [2], greater than 100 µM; in data set [3], greater than 100 µM; in [5], 5.84 µM; in data set [6], 65.8 µM. The outcome in [9] was inactive. Moreover, the Ki in [7] was found to be 4.28 µM. Moreover, the fold change (FC) in [8] is 1.28. The Activity result in data set [4] is listed as “Non-toxic”.
`O=C(Nc1ccc(Oc2ccccc2)cc1)O/N=C1\N[C@H](CO)[C@@H](O)[C@H](O)[C@H]1O`: the IC50 was 14.4 µM in data set [1]; greater than 100 µM in [2]; greater than 100 µM in [3]; 0.32 µM in data set [5]; 3.32 µM in data set [6]. Also, in [7], the inhibitory constant (Ki) stood at 0.05 µM. Also, the fold change (FC) in [8] worked out at 1.17. Besides, the Activity entry in [4] is given as “Non-toxic”.
For `O=C(Nc1cccc2ccccc12)O/N=C1\N[C@H](CO)[C@@H](O)[C@H](O)[C@H]1O`, the IC50 in [1] was 10.7 µM; in [2], greater than 100 µM; in [3], greater than 100 µM; in [5], 7.21 µM; in [6], 1.43 µM. Also, the Ki in data set [7] was 7.94 µM. The fold change (FC) in data set [8] is 1.47. The Activity entry in data set [4] is reported as “Non-toxic”.
As to `O=C(Nc1ccc2nsnc2c1)O/N=C1\N[C@H](CO)[C@@H](O)[C@H](O)[C@H]1O`, the IC50 in data set [1] was 6.21 µM; in data set [2], greater than 100 µM; in data set [3], greater than 100 µM; in data set [5] it was 5.75 µM; in data set [6] it was 12.5 µM. The inhibition constant Ki in data set [7] came to 6.38 µM. Besides, the fold change (FC) in data set [8] is 1.23. For the same molecule, the Activity result in [4] was “Non-toxic”.
`O=C(Nc1c(F)cccc1F)O/N=C1\N[C@H](CO)[C@@H](O)[C@H](O)[C@H]1O`: the IC50 in data set [1] was 7.59 µM; in [2], greater than 100 µM; in data set [3], greater than 100 µM; in [5], 16.8 µM; in data set [6] it was 21.9 µM. The Ki in data set [7] was 17.4 µM. Further, the fold change (FC) in data set [8] amounted to 1.35. For the same molecule, the Activity result in data set [4] is on record as “Non-toxic”.
In the case of `O=C(Nc1ccccc1)O/N=C1\N[C@H](CO)[C@@H](O)[C@H](O)[C@H]1O`, the half-inhibitory concentration (IC50) in data set [1] was 31.1 µM; in [2], greater than 100 µM; in data set [3], greater than 100 µM; in [5], 12.5 µM; in data set [6], 19.3 µM. In addition, in data set [7], the Ki turned out to be 11.5 µM. Moreover, the fold change (FC) in data set [8] was 1.49. For the same molecule, the Activity result in data set [4] was “Non-toxic”.
As for `O=C(Nc1c(Cl)cccc1C(F)(F)F)O/N=C1\N[C@H](CO)[C@@H](O)[C@H](O)[C@H]1O`, the IC50 was 5.82 µM in [1]; greater than 100 µM in [2]; greater than 100 µM in data set [3]; 18.1 µM in data set [5]; 23.5 µM in data set [6]. Moreover, the Ki in data set [7] was 12.3 µM. The fold change (FC) in [8] was 1.32. The Activity result in data set [4] is “Non-toxic”.
Turning to `CC(C)(C)NC(=O)O/N=C1\N[C@H](CO)[C@@H](O)[C@H](O)[C@H]1O`, the IC50 in data set [1] is 46 µM; in data set [2], greater than 100 µM; in data set [3], greater than 100 µM; in data set [5] it was 29.1 µM; in data set [6] it was 21.5 µM. Moreover, the inhibitory constant (Ki) in data set [7] turned out to be 30.1 µM. The fold change (FC) in data set [8] stood at 1.3. For the same molecule, in [4], the Activity result is on record as “Non-toxic”.

In general, IC50 refers to the concentration needed to halve the response being measured. Usually Ki stands for the dissociation constant of the complex between target and ligand, obtained from inhibition or displacement.

The record behind these values is ChEMBL document CHEMBL3784998, “Synthesis and biological evaluation ofd-gluconhydroximo-1,5-lactam and its oxime-substituted derivatives as pharmacological chaperones for the treatment of Gaucher disease” (Medchemcomm, 2016).
